Reference: patent US20120171194A1, “Method of Cell Differentiation and Uses Therefor in Screening, Diagnosis and Therapy” (priority 2009, published 2012)

Tested on: co-culture of HLA-A2 positive monocytes and HLA-A2 negative HUVECs
Test: Co-culture of PBMC-derived monocytes with HUVECs: endothelial incorporation of monocyte-derived EC-like cells (flow cytometry, HLA-A2)
Assay type: cell-based, human
Conditions: day 3; for proportion of HLA-A2 positive cells of the total cell population: no apoA-I control about 15%; for endothelial incorporation of HLA-A2 positive monocyte-derived endothelial-like cells into the HUVECs layer (effect in words): apoA-I 0.25, 0.5 and 2.0 mg/ml
Protocol: Human umbilical vein ECs (HUVEC) were isolated from human umbilical veins using collagenase digestion. Briefly, umbilical cords from normal or caesarean deliveries are collected and perfused with Ca^2+ and Mg^2+-free phosphate buffer saline (PBS). HUVECs were removed by short treatment at 37° C. with collagenase solution (0.1% in PBS with Ca^2+ and Mg^2+). HUVECS were cultured and expanded for use in investigation at no later than passage 4. Cells were grown under standard culture conditions of 37° C. in a 95% air/5% CO2 atmosphere in M199 media (Cell Applications or Invitrogen Australia) supplemented with 10% foetal bovine serum (FBS; Trace Bioscience, or Invitrogen Australia) or with 10% heat-inactivated human serum and with a D-glucose concentration of 5.0 mM. The human serum was obtained from healthy donors within 7 days of the experiment. The human serum was filtered with 0.22 μm PES membrane (Millipore) and heat inactivated at 56° C. for 30 minutes.
The ECs were screened for human leucocyte antigen-A2 type (HLA-A2) expression with direct immunofluorescence and flow cytometry (Beckman Coulter). The batches of HUVEC cells that were HLA-A2 negative were used in these investigations. Alternatively, batches of HACECs that are HLA-A2 negative are used in these investigations. The batches of HLA-A2 negative HUVECs preferably at second passage were grown to approximately 75% sub-confluence on 6-wells cell culture plates (Becton Dickinson Labware, growth area 9.6 cms^2 per well) at a density varying from 10,000 to 500,000 cells per well 24 hours before the co-culture. Usually a density of 500,000 cells per well is needed to achieve a fully confluent layer of HUVECS. Alternatively, batches of HLA-A2 negative HCAECs preferably at second passage are grown to approximately 75% sub-confluence on 6-wells cell culture plates (Bectin Dickinson Labware).
Fresh peripheral blood mononuclear cells (PBMCs) were obtained from venous blood of healthy HLA-A2 positive donors (n=5) by gradient centrifugation on Lymphoprep in a hypertonic medium (Lymphoprep™) and immediately seeded onto HUVECs. Alternatively, the PBMCs are immediately seeded onto HCAECs layers at densities ranging from 0.25 to 2×10^6 cells per well. […] The co-cultured cell layer containing HUVECs were detached at multiple time points between day 0 and day 6 by addition of 20 μl of detachment solution containing 0.12% trypsin and analyzed by direct immunofluoresence and flow cytometry inter alia for expression of cell surface markers. […]
Expression of cell surface markers was analyzed by two-colors direct immunofluoresence and flow cytometry (Cytomics FC500, Beckman Coulter). […]

Substance: apolipoprotein A-I [apoA-I]
- proportion of HLA-A2 positive cells of the total cell population (0.5 mg/ml apoA-I in co-culture, t test P<0.01): about 33%
- proportion of HLA-A2 positive cells of the total cell population (2.0 mg/ml apoA-I in co-culture): about 37%
- endothelial incorporation of HLA-A2 positive monocyte-derived endothelial-like cells into the HUVECs layer (effect in words): dose dependent increase
- endothelial incorporation of HLA-A2 positive monocyte-derived endothelial-like cells into the HUVECs layer (effect in words) (listed as ApoA-I): increased endothelial incorporation
